Key:
[1] = molecular target: T1, MaDA1 (Morus alba, UniProt A0AAN0NNN7); test: UPLC product assay; format: biochemical; conditions: oxidative cyclisation to moracin D; 20 mM Tris-HCl pH 8.0, 50 °C
T1 construct: N-terminal 6xHis-SUMO tag, Sf9 baculovirus; tag removed by TEV protease for crystallisation; dimer in crystal
T1 sequence (A0AAN0NNN7 24-539 limits assumed): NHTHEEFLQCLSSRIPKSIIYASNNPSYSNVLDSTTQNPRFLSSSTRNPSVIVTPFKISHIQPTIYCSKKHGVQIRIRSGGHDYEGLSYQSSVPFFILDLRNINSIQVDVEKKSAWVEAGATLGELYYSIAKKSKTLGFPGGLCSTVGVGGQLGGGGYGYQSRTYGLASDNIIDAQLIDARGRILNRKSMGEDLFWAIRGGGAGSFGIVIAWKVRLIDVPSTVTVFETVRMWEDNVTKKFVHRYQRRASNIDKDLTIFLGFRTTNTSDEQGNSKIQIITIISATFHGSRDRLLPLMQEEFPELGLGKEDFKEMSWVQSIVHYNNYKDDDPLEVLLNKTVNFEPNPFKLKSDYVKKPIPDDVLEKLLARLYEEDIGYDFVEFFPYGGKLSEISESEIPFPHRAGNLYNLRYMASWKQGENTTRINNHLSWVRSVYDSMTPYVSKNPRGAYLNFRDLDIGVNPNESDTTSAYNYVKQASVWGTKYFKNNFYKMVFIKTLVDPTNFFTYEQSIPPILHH

[2] = molecular target: T2, ancDADS; test: Lineweaver-Burk, UPLC product quantification; format: biochemical; conditions: competitive against moracin C (20–150 μM); 20 mM Tris-HCl pH 8.0; compound is also an alternative substrate
T2 construct: N-terminal 6xHis-SUMO tag, Sf9 baculovirus

[3] = molecular target: Morus alba Diels-Alderase MaDA1 (Morus alba); test: crystal structure; untagged MaDA1 at about 10 mg/mL, sitting drop vapor diffusion at 18 °C, 0.1 M Bis-Tris pH 5.5, 25% PEG3350

CC(C)=CCc1c(O)cc(-c2cc3ccc(O)cc3o2)cc1O [compound 1, moracin C]
UPLC product assay [1]: two DAs (MaDA1 and MaDA4) and two DSs (MaDS1 and MaDS6) exhibit functional promiscuity

CC(C)=CCc1c(O)ccc(C(=O)/C=C/c2ccc(O)cc2O)c1O [compound 4, morachalcone A]
Ki [2]: 7.34 µM

Morus alba Diels-Alderase MaDA1 (enzyme)
stoichiometry N [3]: 2

— publication PMC10954736, “The evolutionary origin of naturally occurring intermolecular Diels-Alderases from Morus alba” (Nature Communications, 2024)
